Assay results: patent US20130303539A1, “COMPOUNDS WITH TRPV4 ACTIVITY, COMPOSITIONS AND ASSOCIATED METHODS THEREOF” (priority 2012, published 2013)
pIC50: −log10 of the molar value.

Key:
[1] = system: MB mouse model of glaucoma; assay: IOP in microbead (MB) mouse model of glaucoma, intraperitoneal dosing; type: in vivo
Description: FIG. 2 confirms that the mouse model for glaucoma causes RGC degeneration. Specifically, microbeads (MBs) were injected into the anterior chamber of a mouse eye. The MBs increase intraocular IOP above 15 mm Hg by blocking outflow of the aqueous humor within the anterior chamber of the eye. MBs were reinjected as needed to maintain a high IOP, typically one injection every two weeks. Contralateral eyes were injected intraocularly with the vehicle PBS (phosphate buffered saline) as controls. […] IOP levels were measured at least twice weekly before and after intraocular injections. After injections, mice recovered for 48 hours before IOP measurements resumed. […] Retinas were then removed and processed for immunohistochemistry (IHC). […] After rinsing with PBS, PBS containing the secondary antibody conjugated to fluorophores (Alexa 488 or Alexa 594; […] Retinas were rinsed and flat-mounted on microscope slides. Mounting medium was added and retinal wholemounts were coverslipped. The density of RGCs was imaged with a confocal microscope (Zeiss LSM 510) and quantified by counting NeuN-, CFP- and/or Tuj-1—labeled somata in the RGC layer of the retinal wholemount preparation. Injection of microbeads induces RGC degeneration after 8 weeks but not after 4 weeks. […] Mice were sedated with IP injection of Avertin with final amount calculated by weight (e.g., 0.5 ml for 21-24 g animals). […]

TRPV4 [2] = biological target: T1, TRPV4 (Mus musculus, UniProt Q9EPK8); assay: Block of TRPV4 agonist-induced calcium responses in retinal ganglion cells; type: cell-based; set-up: endogenous in cells; host or cells: retinal Müller glial cells
Description: Calcium responses in retinal ganglion cells were elicited by 25 nM agonist GSK in the presence of varying concentrations of Compound 1. The half-maximal dose of inhibition was ˜300 nM.

TRPV4 [3] = biological target: T1, TRPV4; assay: TRPV4 agonist GSK-evoked [Ca++]i in retinal Müller glial cells; type: cell-based; set-up: endogenous in cells; host or cells: retinal Müller glial cells
retinal ganglion cells = assay: RGC density in retinal wholemounts of the MB mouse model; type: in vivo
Description: FIG. 2 confirms that the mouse model for glaucoma causes RGC degeneration. Specifically, microbeads (MBs) were injected into the anterior chamber of a mouse eye. The MBs increase intraocular IOP above 15 mm Hg by blocking outflow of the aqueous humor within the anterior chamber of the eye. MBs were reinjected as needed to maintain a high IOP, typically one injection every two weeks. Contralateral eyes were injected intraocularly with the vehicle PBS (phosphate buffered saline) as controls. […] IOP levels were measured at least twice weekly before and after intraocular injections. After injections, mice recovered for 48 hours before IOP measurements resumed. Following 4 or 8 weeks of IOP elevation, mice were intracardially perfused with 4% paraformaldehyde in 1×PBS to fix the retinas. Retinas were then removed and processed for immunohistochemistry (IHC). Whole retinas were rinsed with 1×PBS three times at room temperature then incubated in blocking buffer (1×PBS+1% BSA). […] The density of RGCs was imaged with a confocal microscope (Zeiss LSM 510) and quantified by counting NeuN-, CFP- and/or Tuj-1—labeled somata in the RGC layer of the retinal wholemount preparation. […]
RGD density was quantified in retinas isolated from TuJ-1^+ mice and transgenic Thy1-CRP^+ transgenic mice that had been injected with either MBs or vehicle (PBS) then dosed with either compound 1 or vehicle (PBS). […] TuJ-1 was quantified by immunohistochemistry using a Tuj-1-specific antibody conjugated to a fluorescent Alexa 488 or Alexa 594 secondary antibody. […] For fluorescence immunocytochemistry, retinal wholemounts were washed in PBS, then placed for 30 min. to 1 hour in blocking solution (10 ml PBS, 30 μL Triton-X 100, 100 mg bovine serum albumin, 100 μL 10% w/v Na azide solution) in OCT (Ted Pella, Redding, Pa.). […]

T1 sequence (Q9EPK8 whole entry): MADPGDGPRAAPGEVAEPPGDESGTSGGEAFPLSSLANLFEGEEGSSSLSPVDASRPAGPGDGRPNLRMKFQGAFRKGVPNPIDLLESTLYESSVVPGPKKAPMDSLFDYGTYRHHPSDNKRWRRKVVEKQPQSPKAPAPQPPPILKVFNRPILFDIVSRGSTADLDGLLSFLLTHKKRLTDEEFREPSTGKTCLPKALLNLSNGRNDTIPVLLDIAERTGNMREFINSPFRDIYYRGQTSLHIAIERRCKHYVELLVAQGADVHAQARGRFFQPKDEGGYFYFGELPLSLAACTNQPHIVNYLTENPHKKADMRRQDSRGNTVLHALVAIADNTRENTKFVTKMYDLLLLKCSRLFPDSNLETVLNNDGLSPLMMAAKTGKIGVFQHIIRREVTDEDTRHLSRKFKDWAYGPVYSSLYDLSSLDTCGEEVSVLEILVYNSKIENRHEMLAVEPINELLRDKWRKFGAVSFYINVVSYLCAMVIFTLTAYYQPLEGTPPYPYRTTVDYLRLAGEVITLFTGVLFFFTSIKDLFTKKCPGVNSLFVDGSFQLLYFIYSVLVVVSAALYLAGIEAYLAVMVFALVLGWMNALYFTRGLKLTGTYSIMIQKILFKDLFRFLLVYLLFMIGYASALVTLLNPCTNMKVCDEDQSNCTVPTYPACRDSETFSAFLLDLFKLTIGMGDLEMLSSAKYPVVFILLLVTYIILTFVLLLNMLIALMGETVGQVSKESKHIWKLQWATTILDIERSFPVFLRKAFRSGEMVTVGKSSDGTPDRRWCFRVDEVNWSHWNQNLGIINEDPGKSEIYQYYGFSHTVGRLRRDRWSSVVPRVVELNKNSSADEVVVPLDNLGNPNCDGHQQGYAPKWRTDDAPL

Structure (SMILES): Cc1c(C(=O)Nc2cccc(C(F)(F)F)c2)cc(-c2ccccc2)n1CCCN1CCOCC1 [Compound 1, N-(3-(trifluoromethyl)phenyl)-2-methyl-1-(3-morpholinopropyl)-5-phenyl-1H-pyrrole-3-carboxamide]
- IOP ([1]; 10 mg/kg body weight intraperitoneally, MB-injected eyes vs PBS-injected eyes): blocked the increase in IOP to the level observed in control mice
- average IOP, cumulative effectiveness ([1]; daily IP injections, cumulative data from 3 independent experiments): blocks MB-induced increases in IOP
- pIC50 (TRPV4 [2]): ~6.52
- block of GSK-evoked [Ca++]i increase (TRPV4 [3]): this effect is blocked
- reversibility of the effect on glial calcium levels (TRPV4 [3]): reversible
- washout by superfusion with control saline (TRPV4 [3]): 10 min
- TuJ-1+ cells in the alpha, beta and omega regions (retinal ganglion cells; MB- or PBS-injected eyes, IP dosing): rescues RGCs across all regions of the retina
- CFP+ cells in the alpha, beta and omega regions (retinal ganglion cells; Thy1-CFP transgenic mice, MB- or PBS-injected eyes, IP dosing): rescues RGCs across all regions of the retina
- density of RGCs (TuJ-1+ cells and Thy1:CFP+ cells) (retinal ganglion cells; after 8 weeks of increased IOP, MB-injected mice): RGC loss was rescued
